Consider one compound from PubChem BioAssay AID380.

The assay concerns the target Adenylate kinase 4, mitochondrial (Homo sapiens) (UniProt P27144). The experiment in a line: ligand-induced stabilization of human AK3 (AK4) – biophysical, DSF, SYPRO orange (AID 380). The conditions noted are these: recombinant protein, DSF SYPRO orange thermal shift; at 5 µM; protein 1 µM; buffer 10 mM HEPES; hits give high values.

Sequence of Adenylate kinase 4, mitochondrial (Homo sapiens) (P27144 whole entry, looked up): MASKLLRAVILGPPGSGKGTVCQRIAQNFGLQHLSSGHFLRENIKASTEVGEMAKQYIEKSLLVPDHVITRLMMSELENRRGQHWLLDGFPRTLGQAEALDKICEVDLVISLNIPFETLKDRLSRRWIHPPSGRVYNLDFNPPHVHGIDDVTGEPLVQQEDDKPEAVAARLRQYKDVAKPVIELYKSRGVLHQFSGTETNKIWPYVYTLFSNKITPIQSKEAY

With `Nc1ncnc2c1ncn2[C@@H]1O[C@H](COP(=O)(O)OP(=O)(O)OP(=O)(O)OP(=O)(O)OP(=O)(O)OC[C@H]2O[C@@H](n3cnc4c(N)ncnc43)[C@H](O)[C@@H]2O)[C@@H](O)[C@H]1O`, the Tm shift was 17.2 Celsius.
